# Tests used:
# [1] = target: p38α mitogen-activated protein kinase (Homo sapiens, UniProt Q16539); assay: Surface plasmon resonance (Biacore) binding to p38α; conditions: SPR, 25 °C
# Procedure: To assess the binding ability between the compounds and p38α protein, we used SPR for kinase inhibitor interaction studies.
# The Biacore instrument uses a technique based on surface plasmon resonance to follow the real-time binding of compounds to immobilized proteins on a carboxymethyl dextran surface in a liquid milieu. Compounds were stored as 10 mM stock solutions in 100% dimethyl sulfoxide (DMSO). All light-sensitive compounds were handled under yellow protective light. […] ATP was dissolved directly in running buffer to make a 10 mM solution. The run was started with five start-up cycles in which running buffer was injected (instead of a sample) followed by sample injection cycles. Zero concentration samples were used as blanks. A typical analysis cycle consisted of a 60 s sample injection (30 μL/min), 120–200 s of buffer flow (dissociation phase), followed by a needle and tubing wash with 50% DMSO and buffer, and finally, a 30 s buffer injection to check for sample carry over. The flow cell temperature was 25 °C. Between sample series, a solvent correction cycle was run according to the instrument manual to adjust for referencing errors due to refractive index mismatches between running buffer and samples [35].
# [2] = test system: TNF-α release from THP-1 cells; assay: Inhibition of TNF-α release from THP-1 cells after LPS stimulation; assay type: cell-based; conditions: Homo sapiens; LPS-stimulated THP-1 cells
# Procedure: LPS stock was prepared at 1 mg/mL by adding 1 mL sterile endotoxin-free water to 1 mg LPS powder. The LPS stock was aliquoted and stored at −20 °C. […] An amount of 100 K THP-1 cells were seeded into a 96-well cell culture plate in 100 μL of test medium. […] A total of 10 μL compound was added to the plate with cells, and the cells were incubated for 1 hour at 37 °C. An amount of 10 μL/well LPS was added to stimulate the cells. The final LPS concentration was 300 ng/mL, and the DMSO concentration was 0.3%. […]. The plate was incubated for 5 hours at 37 °C. […] Three replicates were used for each dose. At the 5th hour, the TNF-α in the supernatants and standard curve samples was determined using the HTRF kit. […] Amounts of 5 μL Anti-TNF-α-Cryptate (Invitrogen, Carlsbad, CA, USA) and 5 μL Anti-TNFα-XL665 (Invitrogen) were added, and the plate was incubated at RT for 15 h. The plate was read on an Envision instrument (PerkinElmer) and the IC50 was calculated.
# MAPK14/p38α = MAPK14/p38α (Homo sapiens, UniProt Q16539); assay: p38α MAP kinase activity, phosphorylation of ATF-2 (TR-FRET); assay type: biochemical; conditions: enzyme, GFP-ATF2 substrate, 90 μM ATP
# Procedure: Kinase reaction buffer was composed of 50 mM HEPES (pH 7.5), 0.01% BRIJ-35, 10 mM MgCl2 and 1 mM EGTA. Prepared MAPK14/p38α in 1× kinase buffer with concentration at 500 ng/mL. A 2-fold serial dilution was performed using 1× kinase buffer from 500 ng/mL using 16 dose points. […] The reaction was started by adding 5 μL of the GFP-ATF2(19–96) substrate and ATP solution into each well of the assay plate. The final starting concentration of MAPK14/p38α was 250ng/ml, and the final GFP-ATF2 and ATP concentrations were 0.4 μM and 90 μM, respectively. The assay plate was sealed and incubated for 1 hour at room temperature (RT). Antibody solution (1 mL) was prepared from 20 mM EDTA and 4 nM Tb-antipATF2 (pThr71) antibody in TR-FRET dilution buffer. Antibody solution (10 μL) was added into each well of the assay plate and mixed gently. The final EDTA concentration was 10 mM, and the final Tb-antipATF2 (pThr71) concentration was 2 nM. The assay plate was sealed and incubated for 30 minutes at RT.
# Inhibitor in 0.5% DMSO (2 μL/well) at 5-fold the final assay concentration was added into a 384-well assay plate. […] MAPK14/p38α (4 μL/well) was added to each well of the 384-well assay plate and incubated for 15 min at RT. To start the reaction, substrate GFP-ATF2 (19–96) and ATP (4 μL/well) were added into kinase reaction buffer. […] The resulting TR-FRET emission ratio was plotted against the concentration of inhibitor, and the data fitted to a sigmoidal dose-response curve with a variable slope. The IC50 concentration was calculated from the curve.
# MAPKAPK2 = assay: Inhibition of MAPKAPK2 in GFP-MAPKAPk2_BHK cell model (nuclear translocation); assay type: cell-based; conditions: GFP-MAPKAPk2_BHK cells
# Procedure: In order to study p38α inhibition in a cell system, we investigated the ability of all compounds to inhibit the phosphorylation of mitogen-activated protein-kinase-activated protein kinase 2 (MAPKAPK2). Each compound was prepared at […] concentrations (1, 3, 10 and 30 nM, 0.1 and 0.3 μM), and the percentages of inhibition were calculated from the numbers of cells after treatment with the different compounds.
# GFP-MAPKAPk2_BHK cells were cultured in 96-well plates (2.0 × 10^4/100 μL/well) containing 10% heat-inactivated foetal bovine serum (FBS) and 1 mg/mL G418 at 37 °C in humidified air containing 5% CO2 for 18–24 h. The cells were washed with nutrient solution (100 μL/well) and changed to the compound liquid (100 μL/well). Experiments were set up with the control, and the compound was repeated at each concentration in three wells. The cells were cultured in 96-well plates at 37 °C in humidified air containing 5% CO2 for 90 min. The cells were washed with the dye solution (20 μL/well), and the dyed cells were held for 1 hour at room temperature in the dye liquid. Analysis of nuclear translocation and calculation of the ability of the compounds to inhibit nuclear translocation was performed using the IN Cell Analyzer 1000 Nuclear Trafficking Analysis Module System (GE, Madison, WI, USA). The cultured cells were treated with the obtained compounds in […] concentration grads (1, 3, 10 and 30 nM, 0.1 and 0.3 μM). The inhibitory percentage can be calculated using the amounts of cells after the disposition of the different compounds.
# [3] = test system: TNF-α production, human whole blood; parameters: method as in PMID 11896401; conditions: read-out: IC50, inhibition of LPS-induced TNF-α production; cited from earlier work
# TNF-α production = test system: TNF-α production; parameters: method as in PMID 11896401; conditions: 30 mg/kg p.o.; cited from earlier work
# p38α mitogen-activated protein kinase, sequence (Q16539 whole entry): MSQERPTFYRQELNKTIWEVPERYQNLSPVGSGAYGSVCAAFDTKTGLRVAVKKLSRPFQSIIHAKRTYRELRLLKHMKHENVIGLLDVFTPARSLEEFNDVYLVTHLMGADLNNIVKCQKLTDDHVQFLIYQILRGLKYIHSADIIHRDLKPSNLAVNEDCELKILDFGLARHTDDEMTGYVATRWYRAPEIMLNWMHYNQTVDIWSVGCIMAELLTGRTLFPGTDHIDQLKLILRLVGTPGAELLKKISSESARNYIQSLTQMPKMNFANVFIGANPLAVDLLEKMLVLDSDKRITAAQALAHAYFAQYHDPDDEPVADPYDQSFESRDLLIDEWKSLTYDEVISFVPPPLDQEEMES
# MAPK14/p38α, sequence (Q16539 whole entry): as above
Structure (SMILES),Kd [1] [nM],IC50 [2] [nM],IC50 (MAPK14/p38α) [nM],IC50 (MAPKAPK2) [nM],IC50 [3] [nM],inhibition of LPS-induced TNF-α production in mice in vivo (TNF-α production) [%]
"CC(C)(C)c1cc(NC(=O)NCc2ccccc2Oc2ccc3[nH]ncc3c2)n(-c2ccccc2)n1 [25b, 1-(2-((1H-Indazol-5-yl)oxy)benzyl)-3-(3-(tert-butyl)-1-phenyl-1H-pyrazol-5-yl)urea]",382,1 ± 0.09,0.8 ± 0.03,2.45 ± 0.59,–,–
"Cc1cccc(-n2nc(C(C)(C)C)cc2NC(=O)NCc2ccccc2Oc2ccc3[nH]ncc3c2)c1 [25c, 1-(2-((1H-Indazol-5-yl)oxy)benzyl)-3-(3-(tert-butyl)-1-(m-tolyl)-1H-pyrazol-5-yl)urea]",421,1.06 ± 0.05,0.77 ± 0.08,6.6 ± 0.66,–,–
"CC(C)(C)c1cc(NC(=O)NCc2ccccc2Oc2ccc3c(c2)CCCC3O)n(-c2ccccc2)n1 (stereo not drawn) [27c, 1-(3-(tert-Butyl)-1-phenyl-1H-pyrazol-5-yl)-3-(2-((5-hydroxy-5,6,7,8-tetrahydronaphthalen-2-yl)oxy)-benzyl)urea]",–,18.4 ± 4.35,3.73 ± 0.32,124 ± 6.64,–,–
"Cc1ccc(-n2nc(C(C)(C)C)cc2NC(=O)NCc2ccccc2Oc2ccc3[nH]ncc3c2)cc1 [25a, 1-(2-((1H-Indazol-5-yl)oxy)benzyl)-3-(3-(tert-butyl)-1-(p-tolyl)-1H-pyrazol-5-yl)urea]",15.4,0.73 ± 0.13,0.47 ± 0.02,1.36 ± 0.31,–,–
"Cc1ccc(-n2nc(C(C)(C)C)cc2NC(=O)Nc2ccc(OCCN3CCOCC3)c3ccccc23)cc1 [BIRB-796, 1-(5-tert-butyl-2-p-tolyl-2h-pyrazol-3-yl)-3-[4-(2-morpholin-4-yl-ethoxy)naph-thalen-1-yl]urea]",–,–,–,–,780,84
"CC(C)(C)c1cc(NC(=O)NCc2ccccc2Oc2ccc3[nH]ncc3c2)n(-c2ccc([N+](=O)[O-])cc2)n1 [25h, 1-(2-((1H-Indazol-5-yl)oxy)benzyl)-3-(3-(tert-butyl)-1-(4-nitrophenyl)-1H-pyrazol-5-yl)urea]",221,1.79 ± 0.48,0.82 ± 0.01,2.64 ± 0.56,–,–
"CC(C)(C)c1cc(NC(=O)NCc2ccccc2Oc2ccc3c(c2)CCCC3O)n(-c2ccc([N+](=O)[O-])cc2)n1 (stereo not drawn) [27b, 1-(3-(tert-Butyl)-1-(4-nitrophenyl)-1H-pyrazol-5-yl)-3-(2-((5-hydroxy-5,6,7,8-tetrahydronaphthalen-2-yl)-oxy)benzyl)urea]",–,27.5 ± 1.21,3.87 ± 0.43,98.5 ± 5.89,–,–
